Test results reported in US10391150B2, “Treatments for migraine and related disorders” (The University of Chicago, priority 2011, dated 2019).
Like-named read-outs stand apart in the source and are kept apart here.

How the values were obtained:
[1] = test system: spreading depression (SD) in hippocampal slice cultures; assay: Spreading depression (SD) threshold / susceptibility in hippocampal slice cultures; assay type: cell-based, rat
From the text: FIGS. 2A-2E. […] (FIG. 2A) Experiments begin with determination of the current needed to maximize standard CA3 area field potential responses. Half-maximal intensity is then used to elicit CA3 area evoked field potentials from dentate gyrus bipolar electrical stimulation. This documents the normalcy of evoked synaptic responses between preparations. If a slice's field excitatory post synaptic potentials are not at least 3 mV, slices are discarded. Next, field potential trains (i) are noted to verify that preparations are healthy enough to follow 10 Hz stimulation (e.g., amplitudes of vertical deviations in fast potential records are similar) and the current needed to trigger SD (ii) is registered (Pusic and Kraig, 2010).
(FIG. 8a) Exemplary CA3 area evoked field potential. Experiments begin with establishment of the current intensity needed to evoke maximal field potential responses; stimuli of half-maximal intensity were then used to elicit subsequent field potentials. Only those cultures with CA3 pyramidal neuron post-synaptic responses of at least 3 mV were used for experiments. (FIG. 8b) CA3 response to dentate gyrus bipolar stimulation (10 pulses at 10 Hz, 500 μA) was used to elicit a spreading depression (SD), as shown in (FIG. 8c). (FIG. 8c) The spreading depression (SD) shown here was induced by the stimulation/response (arrow) shown in (FIG. 8b). […] Comparisons between groups made via Student's t-test.
The inventors induced SD trans-synaptically in rat HSC using electrical stimuli (100 μs pulses @ 10 Hz for 1 s) ranging from 1 to 10,000 nC in order to determine SD threshold in sham and experimental groups (Pusic et al., 2011). Results were based on n≥3-6/group. […] This insulin dose approximates the pharmacological levels seen in humans treated with nasal insulin.
Slice cultures were prepared and maintained as previously described (Mitchell et al., 2010a,). After 18 days in vitro (DIV), slice cultures were transferred to serum-free media that included additional calcium and magnesium. Cultures were screened at 21 DIV to ensure no pyramidal neuron death was present. Standard electrophysiological recordings were performed by placing a slice culture insert in a PDMI recording chamber with controlled temperature and pH (FIG. 1). The recording chamber was aerated with 5% CO2-balance air at 36° C. and media flowing at 1.2 mL/min or was held static around the slice culture insert. A recording electrode was placed at the CA3 pyramidal cell layer and a stimulating electrode was placed at the surface of the dentate gyrus. Recordings were initiated prior to placing the stimulating electrode on the culture to ensure no spreading depression was triggered as a result.
Studies began with determination of the current needed to maximize standard CA3 area field potential responses. This documented the normalcy of evoked synaptic responses between preparations. If a slice's field EPSPs were not at least 3-4 mV, it was discarded.
Next, trans-synaptically evoked SD was determined. Here, the inventors stimulated slices via the dentate gyrus with 100 μs pulses delivered at 10 Hz for 1 sec every 1-2 minutes at increasing μA current intensities until SD occurred.
Slice cultures are prepared, maintained, and induced to fire SD as previously described using trans-synaptic excitation of CA3, where SD is initiated (FIG. 4) (Kunkler et al., 2005; Pusic et al., 2011).

[2] = test system: SD in neocortex and hippocampus of anesthetized rat; assay: SD threshold in vivo (0.5 M KCl injection) after nasal administration; conditions: acutely after nasal treatment (IGF-1 150 μg; insulin 20 μg); control 1-8 nL
Procedure: Images show experimental setups for nasal administration and testing. (FIG. 7A) Nasal injection setup showing heat lamp and thermo-regulator that maintains temperature at 37° C. plus nose cone used to deliver isoflurane anesthesia. (FIG. 7B) Operator is shown administering nasal IGF-1 solution, which is performed in a fume hood to adequately vent isoflurane from nose cone. (FIG. 7C) Image illustrates standard electrophysiology setup. Anesthetized animal is placed into a standard electrophysiology holder and anesthesia maintained by a nose cone delivering 3% isoflurane in oxygen. Arterial oxygen saturation is monitored with a pulse-oximeter. Animals are warmed to 37.5° C. with a heating plate. SD is induced by progressively injecting larger volumes of 0.5 M KCl from an 8 μm diameter microelectrode. SD is registered with a second microelectrode used for DC recordings placed more caudally. After SD is evoked by a given injection pulse, the stimulating electrode is withdrawn and a volume re-injected under mineral oil. The diameter of the resultant KCl injection sphere is then measured off line using a compound microscope and the injection volume calculated. For example, in the above whole animal experiments it took 1-8 nL of 0.5 M KCl to evoke SD in control brain regions while after acute IGF-1 this amount rose to 67-109 nL. A day after IGF-1 treatment the volume needed to evoked SD was 34-48 nL. IFN-γ treatment required 338 nL of 0.5 M KCl a day after treatment and IL-11 required 67-200 nL.
Rats (FIGS. 6 and 7) are anesthetized with inhalational isoflurane and kept warm. While anesthetized, animals are placed in a supine position and 50 μL of sterile drug (i.e., IFN-γ, IGF-1, or IL-11) solution [or sterile saline vehicle (sham control)] is administered nasally by delivering 5 μL alternating between the left and right naris every 2 min over 20 minutes. Animals are given nasal drug treatments daily at the same time for 7 days before subsequent experiments. Doses for all 3 agents begin with the effective doses noted in our work using slice cultures (1×), then include others (0.1× and 10×). The inventors base this strategy on the fact that the effective culture dose for IGF-1 (40 ng/mL) closely approximates the dose used in vivo (143 μg/kg).
This approach was applied to measurement of SD threshold (FIG. 10) after treatment (FIG. 7) with nasally administered IGF-1 (150 μg), IL-11 (1 μg), IFN-γ (50,000 units), and insulin (20 μg). […] Resistance against SD was always greater in hippocampus compared to neocortex (n=4, controls; n=3, acutely after IGF-1; n=6, one day after IGF-1; n=6, one day after IL-11; n=6, one day after IFN-γ; and n=3, acutely after insulin).
Nasal administration followed by SD threshold evaluation in vivo. Vehicle or human recombinant IGF-1 (150 μg) is administered intranasally. SD threshold is established by injection of nanoliter volumes of 0.5 M KCl into neocortex or hippocampus (−2.0 mm from Bregma and 1.5 mm lateral from midline at either 750 μm or 2,800 μm into brain, respectively) using a thin-walled glass pipette and Picospritzer. Once a threshold is established, it is confirmed two more times, with an exemplary record from a vehicle-sham animal shown below. […] The diameter of the injected sphere is then measured using a compound microscope and used to calculate the injected volume, then moles of potassium. […]

[3] = test system: CA3 area evoked excitability; assay type: cell-based, rat; conditions: H2O2 exposure
Procedure: (§1) FIGS. 11a-11g IGF-1 decreased CA3 oxidative stress (OS) and its related hyperexcitability. […] Relative evoked excitability was determined as a sum of responses seen (e.g., responses of “2” and a “3” yielded an overall excitability score of five). […] (FIGS. 11d-e) Exemplary images of control (FIG. 11d) slice culture OS compared to increased slice OS induced by exposure to menadione (FIG. 11e). Calibration bar, 200 Dotted boxes indicate CA3 areas of interest used for relative OS quantifications (f and g).

[4] = test system: myelin basic protein (MBP); assay: Myelin basic protein (MBP) Western blot in hippocampal slice cultures; assay type: cell-based, rat; conditions: after SD; anti-CD4 for 24 hours at 7 days in vitro; GW 4869
Procedure: FIGS. 14A-14C. Reduced myelin basic protein (MBP) from SD depends on IFN-γ/T-cell activation and sphingomylinase. […] Thus, confirming involvement of T cells.
FIGS. 15A-15C. Physiological and transient elevation [i.e., phasic (see FIG. 1)] of IFN-γ triggers completely opposite effects. Transient (i.e., 500 U/mL×12 hours; all groups n≥5) exposure of hippocampal slice cultures was nutritive when assessed seven days later.

[5] = test system: oxidative stress (OS) in hippocampal slice cultures; assay: Oxidative stress (OS) by CellROX fluorescence in hippocampal slice cultures (CA3); assay type: cell-based, rat; conditions: menadione exposure, without or with acute IGF-1
Procedure: FIGS. 4A-4F Oxidative stress (OS) from SD and its reduction by IGF-1. (FIG. 4A) Normal cytoarchitecture of a hippocampal slice culture showing pyramidal neuron areas of CA1, dentate gyrus (DG), and the imaging zone for the inventors' work here (dotted line), CA3. (FIG. 4B) OS was measured using CellROX, a fixable fluorescent marker from Invitrogen. […] (FIG. 4D) This reduction versus control SD was significant (p<0.02; n=4 & 5). (FIG. 4E) CellROX can be used to measure relative OS in specific brain cell types.
FIGS. 9a-9f IGF-1 decreased oxidative stress from spreading depression. (FIG. 9a) NeuN immunohistochemical labeling of a hippocampal slice culture, for cytoarchitectural reference and to show the CA3 area of interest (dotted line box) used for quantification of oxidative stress (OS) via CellROX™ fluorescence intensity. (FIGS. 9b-c) Representative CellROX™-labeled hippocampal slices exposed to SD (FIG. 9b) and to 3-day IGF-1 incubation followed by spreading depression (SD) (FIG. 9c). Dotted line boxes illustrate CA3 areas of interest used for relative OS quantifications. […] Again, seven day treatments consisted of exposing cultures to IGF-1 for 12 hours a day for seven days. Note: IGF-1 exposure was continued for the additional 24 hour CellROX™ incubation. Scale bars=400 μm (a) and 200 μm (b and c). Comparisons between groups were made via ANOVA plus Holm-Sidak post hoc testing.
as §1
Oxidative stress from SD preferentially rises in astrocytes and microglia, with the latter effect mitigated by IGF-1 (FIG. 13). The inventors have recently shown that spreading depression (SD), the most likely cause of migraine aura and perhaps migraine (Lauritzen and Kraig, 2005), occurs with increased oxidative stress (OS) and that OS, in turn, increases SD susceptibility (Grinberg et al., 2012). Reactive oxygen and nitrogen species that cause OS have both autocrine and paracrine signaling capacities that can affect SD susceptibility by altering excitability (Kishida and Klann, 2007). Accordingly, the inventors looked for the cellular origin of OS from SD. Here the inventors used hippocampal slice cultures (HSC) to probe for cell-specific changes in OS from SD. SD was induced trans-synaptically in rat HSCs using bipolar electrical stimuli at the dentate gyrus (Pusic et al., 2011). Six SDs were induced every 7-9 min over an hr, followed by 24 hr incubation in CellROX™, a fixable fluorogenic probe for measuring OS (Grinberg et al., 2012). HSCs were then fixed in 10% buffered formalin phosphate. Other fixatives (PLP, 4% paraformaldehyde) prevented detection of OS change. Tissue was then labeled for neurons (anti-NeuN), oligodendrocytes (anti-RIP), astrocytes (anti-GFAP), or for microglia (isolectin GS-IB4).

For Insulin, the “relative SD threshold versus control (control 1.00±0.20)” value ([1]; 3-day exposure, insulin 400 μg/mL) was 22.60±9.60, the “insulin dose needed for protective effect relative to IGF-1” value ([1]; protection against SD in slice cultures) was 15 500 fold and the “dose needed for protective effect against SD” value ([1]; slice cultures) was 70 µM. For the same molecule, the “volume of 0.5 M KCl needed to evoke SD” value [2] was 8 to 34 nL.

With `OO` [hydrogen peroxide, reference compound] the “evoked excitability versus control” value ([3]; without or with IGF-1 pretreatment for 3 days) was “increased slice excitability”, the “evoked excitability versus control” value ([3]; without or with acute IGF-1, 30 minutes after H2O2) was “significantly increased evoked slice hyperexcitability” and the “evoked excitability versus control” value ([3]; without or with acute IGF-1, 30 minutes after H2O2, listed as H2O2) was “increase in evoked excitability”.

`O=C(/C=C/c1ccc(/C=C/C(=O)Nc2ccc(C3=NCCN3)cc2)cc1)Nc1ccc(C2=NCCN2)cc1` [GW 4869, reference compound] was tested, and the “decline in MBP / demyelination after SD” value [4] was “prevents the drop in MBP after SD”.

For `CC1=CC(=O)c2ccccc2C1=O` [menadione, reference compound], the “OS induced by menadione versus control” value [5] was “significant increase in slice OS”.

B1: sTNFR1: soluble TNFR1 used for removal of TNF-α signaling (protein, UniProt P19438 30-211, looked up)
extracellular domain: LVPHLGDREKRDSVCPQGKYIHPQNNSICCTKCHKGTYLYNDCPGPGQDTDCRECESGSFTASENHLRHCLSCSKCRKEMGQVEISSCTVDRDTVCGCRKNQYRHYWSENLFQCFNCSLCLNGTVHLSCQEKQNTVCTCHAGFFLRENECVSCSNCKKSLECTKLCLPQIENVKGTEDSGTT
modifications: extracellular domain
notes: soluble TNFR1 used for removal of TNF-α signaling
With B1 the “SD-induced increased susceptibility to SD” value ([1]; after previous SD, soluble TNFR1 200 ng/mL after first day of SD, anti-CD4 0.1 mg/mL at 7 days for 24 hours) was “abrogated”.
